Measurements: US20240018125A1, “CYCLIC ISOTHIOUREA DERIVATIVES AS CXCR4 MODULATORS” (ERMIUM THERAPEUTICS, priority 2020, published 2024)
Where a name gives a salt, the structure may show the parent alone.

Tested on: peripheral blood mononuclear cells (PBMCs) from healthy donors
Assay: IFN production by R848-activated PBMCs, quantified with twINNE luciferase reporter cell line
Format: cell-based, human
Settings: Homo sapiens, PBMC; read-out: IC50 of anti-inflammatory activity (IFN production by activated PBMCs)
Description: The blood from healthy donors was obtained from “Etablissement Français du Sang” (convention #19/EFS/029), Paris, France.
In vitro experiments were performed using human peripheral blood mononuclear cells (PBMCs) isolated by density centrifugation from peripheral blood leukocyte separation medium, lymphoprep (Stemcell Technologies).
PBMCs were cultured in RPMI 1640 (Sigma-Aldrich, MO, USA) containing 10% heat-inactivated fetal bovine serum (Sigma-Aldrich, MO, USA) at 37° C./5% CO2.
The PBMCs used herein were prepared as described in part A “immune cells preparation”, above. PBMCs were seeded at 4.10^6/mL. Cells were pre-treated with different concentration of examples according to the invention. Cells were then stimulated with the TLR7/8 agonist resiquimod—R848 (Sigma-Aldrich, MO, USA) at 5 μg/mL.
To quantify the secretion of functional IFN, a biological assay based on a stable cell line where luciferase reporter gene is controlled by five Interferon-Stimulated Response Elements (twINNE cell line) was used. First, supernatants of R848-stimulated PBMCs (see part B above) were harvested after 24 h of stimulation and frozen at −20° C. for storage. Then, supernatants were dispensed in culture wells of a 96-well plate containing 35.103 twINNE cells per well in Dulbecco's Modified Eagle's Medium supplemented with 10% Foetal Bovine Serum, 100 U/mL Penicillin and 100 μg/mL Streptomycin (1% Pen-Strep) and 1 mM glutamine (Sigma-Aldrich, MO, USA) at 37° C./5% CO2. After 24 h of culture, luciferase activity was determined by adding 60 μL of Bright-Glo reagents (Promega, Wisconsin, USA) to culture wells and measuring bioluminescence with EnSpire Multimode Plate Reader (PerkinElmer, Massachusetts, USA). When stated, for IC50 calculation, dose-response curves fitted using the nonlin fit (variable slope) analysis in GraphPad Prism software (GraphPad Software, Califronia, USA).
IFN production was quantified (as specified in Materials and Methods, part C “quantification of interferon secretion”) using twINNE reporter cell line.

In the case of `Brc1cccc2c1N=C1SC=C(CSC3=NCc4ccccc4N3)N1C2` [Example 85, 9-bromo-3-(((1,4-dihydroquinazolin-2-yl)thio)methyl)-5H-thiazolo[2,3-b]quinazoline dihydrochloride], the IC50 is reported as no more than 10 µM.
`C1=C(CSC2=NCc3ccccc3N2)N2Cc3ccccc3N=C2S1` [Example 12, 3-(((1,4-dihydroquinazolin-2-yl)thio)methyl)-5H-thiazolo[2,3-b]quinazoline dihydrochloride] was tested, and the IC50 was no more than 10 µM.
Work on `CC1(C)CN=C(SCCCCN2CCCC2)N1` [Example 172, 4,4-dimethyl-2-((4-(pyrrolidin-1-yl)butyl)thio)-4,5-dihydro-1H-imidazole dihydrochloride] yielded an IC50 greater than 32 µM.
Work on `CCN1CCC(SC2=NCc3ccccc3N2)C1` (centres unmarked) [Example 104, 2-((1-ethylpyrrolidin-3-yl)thio)-1,4-dihydroquinazoline dihydrochloride] yielded an IC50 of no more than 10 µM.
Compound `C1CCN(CCSC2=NCC3(CC3)N2)C1` [Example 187, 5-((2-(pyrrolidin-1-yl)ethyl)thio)-4,6-diazaspiro[2.4]hept-5-ene dihydrochloride] has an IC50 of no more than 10 µM.
For `CC1(C)CN=C(SCC2=CSC3=NCc4ccccc4CN23)N1` [Example 8, 3-(((5,5-dimethyl-4,5-dihydro-1H-imidazol-2-yl)thio)methyl)-5,10-dihydrobenzo[e]thiazolo[3,2-a][1,3]diazepine dihydrochloride], the IC50 was no more than 10 µM.
Compound `CN1CCC(SC2=NCCc3ccccc3N2)C1` (centres unmarked) [Example 105, 2-((1-methylpyrrolidin-3-yl)thio)-4,5-dihydro-1H-benzo[d][1,3]diazepine dihydrochloride] has an IC50 of 10 to 32 µM.
Compound `COc1ccc(CC2(C)CN=C(SCC3=CSC4=NCc5ccccc5CN34)N2)cc1` (centres unmarked) [Example 34, 3-(((5-(4-methoxybenzyl)-5-methyl-4,5-dihydro-1H-imidazol-2-yl)thio)methyl)-5,10-dihydrobenzo[e]thiazolo[3,2-a][1,3]diazepine dihydrochloride] has an IC50 of no more than 10 µM.
For `C[C@@H](CN1CCCC1)SC1=NCc2cc(Cl)ccc2N1` [Example 168, (S)-6-chloro-2-((1-(pyrrolidin-1-yl)propan-2-yl)thio)-1,4-dihydroquinazoline dihydrochloride], the IC50 was 10 to 32 µM.
`CC1(c2ccccc2)CN=C(SCC2=CSC3=NCc4ccccc4CN23)N1` (centres unmarked) [Example 30, 3-(((5-methyl-5-phenyl-4,5-dihydro-1H-imidazol-2-yl)thio)methyl)-5,10-dihydrobenzo[e]thiazolo[3,2-a][1,3]diazepine dihydrochloride] was tested, and the IC50 was no more than 10 µM.
With `c1ccc2c(c1)NC(SCCCCN1CCCC1)=NC21CC1` [Example 180, 2′-((4-(pyrrolidin-1-yl)butyl)thio)-1′H-spiro[cyclopropane-1,4′-quinazoline] dihydrochloride] the IC50 was 10 to 32 µM.
With `CCCCC1CN=C(SCC2=CSC3=Nc4ccccc4CN23)N1` (centres unmarked) [Example 29, 3-(((5-butyl-4,5-dihydro-1H-imidazol-2-yl)thio)methyl)-5H-thiazolo[2,3-b]quinazoline dihydrochloride] the IC50 was no more than 10 µM.
With `Fc1ccc2c(c1)NC(SCCCCN1CCCC1)=NC2` [Example 151, 7-fluoro-2-((4-(pyrrolidin-1-yl)butyl)thio)-1,4-dihydroquinazoline dihydrochloride] the IC50 was no more than 10 µM.
Compound `Clc1ccc2c(c1)CN1C(CSC3=N[C@@H]4CCCC[C@H]4N3)=CSC1=N2` [Example 40, 7-chloro-3-((((3aR,7aR)-3a,4,5,6,7,7a-hexahydro-1H-benzo[d]imidazol-2-yl)thio)methyl)-5H-thiazolo[2,3-b]quinazoline dihydrochloride] has an IC50 of no more than 10 µM.
`c1ccc(N2CCC(SC3=NCc4ccccc4CN3)C2)cc1` (centres unmarked) [Example 106, 3-((1-phenylpyrrolidin-3-yl)thio)-2,5-dihydro-1H-benzo[e][1,3]diazepine hydrochloride] showed an IC50 of 10 to 32 µM.
Compound `CC1(C)CN2C(CSC3=NCc4ccccc4CN3)=CSC2=N1` [Example 7, 3-(((2,5-dihydro-1H-benzo[e][1,3]diazepin-3-yl)thio)methyl)-6,6-dimethyl-5,6-dihydroimidazo[2,1-b]thiazole dihydrochloride] has an IC50 greater than 32 µM.
In the case of `Fc1ccc2c(c1)NC(SCC1=CSC3=NC(Cc4ccccc4)CN13)=NC2` (centres unmarked) [Example 89, 6-benzyl-3-(((7-fluoro-1,4-dihydroquinazolin-2-yl)thio)methyl)-5,6-dihydroimidazo[2,1-b]thiazole dihydrochloride], the IC50 is reported as no more than 10 µM.
`Cl.c1ccc2c(c1)CN=C(SCc1csc3nc4ccccc4n13)N2` [Example 96, 3-(((3,4-dihydroquinazolin-2-ylthio)methyl)benzo[4,5]imidazo[2,1-b]thiazole hydrochloride] gave an IC50 greater than 32 µM.
`Clc1cccc2c1CN=C(SCC1=CSC3=NC(Cc4ccccc4)CN13)N2` (centres unmarked) [Example 118, 6-benzyl-3-(((5-chloro-1,4-dihydroquinazolin-2-yl)thio)methyl)-5,6-dihydroimidazo[2,1-b]thiazole dihydrochloride] gave an IC50 of no more than 10 µM.
`Clc1ccc2c(c1)CN=C(SCCCCN1CCCCC1)N2` [Example 164, 6-chloro-2-((4-(piperidin-1-yl)butyl)thio)-1,4-dihydroquinazoline dihydrochloride] showed an IC50 of no more than 10 µM.
Work on `c1ccc(CC2CCN(CCSC3=NCc4ccccc4N3)C2)cc1` (centres unmarked) [Example 154, 2-((2-(3-benzylpyrrolidin-1-yl)ethyl)thio)-1,4-dihydroquinazoline dihydrochloride] yielded an IC50 greater than 32 µM.
`c1ccc2c(c1)CCN=C(S[C@H]1CCNC1)N2` [Example 199, (S)-2-(pyrrolidin-3-ylthio)-4,5-dihydro-3H-benzo[d][1,3]diazepine dihydrochloride] gave an IC50 of 10 to 32 µM.
`Clc1ccc2c(c1)CN1C(CSC3=NCC(Cc4ccccc4)N3)=CSC1=N2` (centres unmarked) [Example 20, 3-(((5-benzyl-4,5-dihydro-1H-imidazol-2-yl)thio)methyl)-7-chloro-5H-thiazolo[2,3-b]quinazoline dihydrochloride] gave an IC50 of no more than 10 µM.
Compound `Clc1ccc2c(ccn2CCSC2=NCc3ccccc3N2)c1` [Example 74, 2-((2-(5-chloro-1H-indol-1-yl)ethyl)thio)-3,4-dihydroquinazoline hydrochloride] has an IC50 greater than 32 µM.
Work on `CN1CCCC1CCSC1=NCC(Cc2ccccc2)N1` (centres unmarked) [Example 57, 5-benzyl-2-((2-(1-methylpyrrolidin-2-yl)ethyl)thio)-4,5-dihydro-1H-imidazole dihydrochloride] yielded an IC50 greater than 32 µM.
`CC1(c2ccccc2)CN=C(SCC2=CSC3=Nc4ccc(Cl)cc4CN23)N1` (centres unmarked) [Example 72, 7-chloro-3-(((5-methyl-5-phenyl-4,5-dihydro-1H-imidazol-2-yl)thio)methyl)-5H-thiazolo[2,3-b]quinazoline dihydrochloride] gave an IC50 of no more than 10 µM.
In the case of `c1ccc2c(c1)CCN=C(SCCCCN1CCCC1)N2` [Example 159, 2-((4-(pyrrolidin-1-yl)butyl)thio)-4,5-dihydro-1H-benzo[d][1,3]diazepine dihydrochloride], the IC50 is reported as 10 to 32 µM.
In the case of `CC(CCCSC1=NCc2cc(Cl)ccc2N1)N1CCCC1` (centres unmarked) [Example 162, 6-chloro-2-((4-(pyrrolidin-1-yl)pentyl)thio)-1,4-dihydroquinazoline dihydrochloride], the IC50 is reported as no more than 10 µM.
`CC1(C)CN=C(SCC2=CSC3=Nc4ccc(Cl)cc4CN23)N1` [Example 2, 7-chloro-3-(((5,5-dimethyl-4,5-dihydro-1H-imidazol-2-yl)thio)methyl)-5H-thiazolo[2,3-b]quinazoline dihydrochloride] gave an IC50 of 10 to 32 µM.
`Clc1ccc2c(c1)CN=C(SCCCN1CCCC1)N2` [Example 161, 6-chloro-2-((3-(pyrrolidin-1-yl)propyl)thio)-1,4-dihydroquinazoline dihydrochloride] gave an IC50 of no more than 10 µM.
In the case of `c1ccc(CC2CN=C(SCCN3CCCCCC3)N2)cc1` (centres unmarked) [Example 58, 1-(2-((5-benzyl-4,5-dihydro-1H-imidazol-2-yl)thio)ethyl)azepane dihydrochloride], the IC50 is reported as 10 to 32 µM.
Work on `OC1(CSC2=NCc3ccccc3N2)CSC2=N[C@H](c3ccccc3)[C@@H](c3ccccc3)N21` (relative stereo) [Example 17, trans-3-(((3,4-dihydroquinazolin-2-yl)thio)methyl)-5,6-diphenyl-2,3,5,6-tetrahydroimidazo[2,1-b]thiazol-3-ol dihydrochloride] yielded an IC50 greater than 32 µM.
In the case of `Fc1cccc2c1CN=C(SCCCCN1CCCC1)N2` [Example 149, 5-fluoro-2-((4-(pyrrolidin-1-yl)butyl)thio)-1,4-dihydroquinazoline dihydrochloride], the IC50 is reported as no more than 10 µM.
For `C(CCN1CCCC1)CSC1=NCCN1` [Example 175, 2-((4-(pyrrolidin-1-yl)butyl)thio)-4,5-dihydro-1H-imidazole dihydrochloride], the IC50 was greater than 32 µM.
Compound `Clc1ccc2c(c1)CN=C(SCC1=CSC3=NC(Cc4ccccc4)CN13)N2` (centres unmarked) [Example 114, 6-benzyl-3-(((6-chloro-1,4-dihydroquinazolin-2-yl)thio)methyl)-5,6-dihydroimidazo[2,1-b]thiazole dihydrochloride] has an IC50 of no more than 10 µM.
